Reference: paper PMC5896266, “Development of Matrix Metalloproteinase-2 Inhibitors for Cardioprotection” (Frontiers in Pharmacology, 2018)
Like-named read-outs stand apart in the source and are kept apart here.

Legend:
[1] = target: T1, Human MMP-2 catalytic domain (Homo sapiens, UniProt P08253, DEL222-396); assay: Fluorometric MMP-2 inhibition assay (MTS), catalytic domain; assay type: biochemical
T1 construct: Human MMP-2 catalytic domain (residues 110-221, 397-455); made in house
Method: In vitro MMP-2 activity was then measured, using a fluorometric assay in a 384 well format. Human MMP-2 catalytic domain (residues 110-221, 397-455) (Feng et al., [2000]) was expressed in E. coli in form of inclusion bodies. The protein was refolded and then purified by means of Ni-NTA affinity and anion exchange chromatography. Inhibition assays were carried out in 50 mM Tris, 5 mM CaCl2, 300 mM NaCl, 20 μM ZnSO4, pH = 7.5 buffer. For inhibition studies the catalytic domain of the enzyme was pre-incubated with varying amount of inhibitor for 30 min. […] After 1 h incubation at 37°C the fluorescence was detected using a Wallac 1420 Victor2 microplate reader at 320 nm/405 nm Ex/Em wavelength. As an alternative substrate we also used 5-FAM-Pro-Leu-Gly-Leu-Dap(QXL™ 520)-Ala-Arg-NH2, where the fluorescence was detected at 485 nm/520 nm. For each inhibitor candidate, the percentage of inhibition was determined in duplicate experiments at six inhibitor concentrations, chosen to observe a 5–95% range of inhibition.
Since hydroxamic acids are reported as the primary zinc-binding motif, we intended to select such a library from the AMRI 200,000 member non-exclusive compound repository as a starting point of our drug discovery efforts. Since only a few compounds were available in the repository as hydroxamic acids and the conversion of acids to hydroxamic acids were not applicable to HT parallel synthesis, we decided first to select free acids from the AMRI's compound collection. […] The selected acids were screened in a fluorescent assay using a recombinant human MMP-2 catalytic fragment and a synthetic peptide substrate. […] The hydroxamic acid pairs of the previously measured acids were then tested.

[2] = target: T2, MMP-1 (Homo sapiens, UniProt P03956); assay: MMP-1 inhibition (inhibitory profile); assay type: biochemical; details: Table 2
T2 sequence (P03956 100-469): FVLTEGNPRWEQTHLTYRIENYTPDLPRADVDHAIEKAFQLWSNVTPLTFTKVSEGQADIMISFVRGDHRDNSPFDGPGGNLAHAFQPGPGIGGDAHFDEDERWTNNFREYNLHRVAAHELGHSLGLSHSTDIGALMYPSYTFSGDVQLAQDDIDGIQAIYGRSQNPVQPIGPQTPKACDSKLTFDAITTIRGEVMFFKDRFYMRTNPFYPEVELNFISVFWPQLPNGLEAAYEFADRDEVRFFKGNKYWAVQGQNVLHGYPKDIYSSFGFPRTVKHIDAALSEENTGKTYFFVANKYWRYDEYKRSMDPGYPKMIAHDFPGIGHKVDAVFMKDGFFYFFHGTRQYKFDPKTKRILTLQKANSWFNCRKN
Method: (§1) The compounds were measured for MMP-1, 2, 9, 13 to determine their inhibitory profile. Efficiency Index amplifies the two major required effects, selectivity against MMP-1 and the inhibitory activity.

[3] = target: MMP-9 (Homo sapiens, UniProt P14780); assay: MMP-9 inhibition (inhibitory profile); assay type: biochemical; details: Table 2
Method: as §1

[4] = target: MMP-13 (Homo sapiens, UniProt P45452); assay: MMP-13 inhibition (inhibitory profile); assay type: biochemical; details: Table 2
Method: as §1

[5] = target: T3, MMP-2 enzyme isolated from rat heart (Rattus norvegicus, UniProt P33436); assay: Gelatin zymography on cardiac MMP-2; assay type: biochemical; details: for inhibition at 100 µM: cardiac MMP-2, gelatin zymography, read-out: Inhibition (%)±SEM at 100 μM final MMP inhibitor concentration; for EC50: concentration labelled EC50 in Supplementary Figure 4, doses calculated according to IC doses in vitro
T3 construct: we used full-length, active MMP-2 enzymes isolated from healthy young adult rat hearts; from tissue; host or cells: rat heart homogenate (healthy young adult rats)
T3 sequence (P33436 110-662): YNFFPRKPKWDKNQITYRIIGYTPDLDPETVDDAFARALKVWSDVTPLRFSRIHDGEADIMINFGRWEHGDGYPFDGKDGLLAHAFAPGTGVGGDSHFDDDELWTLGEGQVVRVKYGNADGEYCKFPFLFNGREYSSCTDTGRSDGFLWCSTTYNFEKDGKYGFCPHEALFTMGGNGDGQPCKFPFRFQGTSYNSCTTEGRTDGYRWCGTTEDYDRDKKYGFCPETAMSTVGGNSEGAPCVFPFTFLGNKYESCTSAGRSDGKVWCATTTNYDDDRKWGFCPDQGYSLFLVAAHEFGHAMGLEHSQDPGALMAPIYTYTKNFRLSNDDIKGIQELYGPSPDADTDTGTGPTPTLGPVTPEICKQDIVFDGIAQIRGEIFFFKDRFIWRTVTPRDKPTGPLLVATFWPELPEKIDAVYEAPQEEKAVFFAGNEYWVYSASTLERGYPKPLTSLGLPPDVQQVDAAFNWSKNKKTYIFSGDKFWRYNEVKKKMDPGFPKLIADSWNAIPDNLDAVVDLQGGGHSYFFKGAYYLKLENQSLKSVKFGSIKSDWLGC
Method: Gelatin zymography was performed as described previously (Kupai et al., [2010]; Bencsik et al., [2017]). MMP-2 was isolated from rat heart homogenates as follows: 50 μg protein/lane were loaded and separated by electrophoresis under non-reducing conditions on an 8% SDS-polyacrylamide gels copolymerized with 2 mg/ml gelatin from porcine skin (Sigma-Aldrich; St. Louis, MO). After electrophoresis, gels were washed in 2.5% Triton-X 100 with gentle agitation and then incubated for 20 h at 37°C in zymography development buffer (50 mM Tris-HCl, pH 7.5, containing 5 mM CaCl2, 200 mM NaCl) in the presence or abscence of the MMP inhibitor compounds. Zymographic gels were stained in a 0.05% Coomassie Brilliant Blue R-250 solution followed by destaining, and then zymograms were scanned. MMP activity was detected as a colorless transparent zone on a blue background and the clear bands in the gel were quantified by densitometry using the Quantity One software (Bio-Rad, Hercules, CA). The obtained density values were measured and percentage of inhibition values were then calculated.
To confirm the MTS screen results, we tested the potential MMP inhibitor molecules on MMP-2 enzyme isolated from rat heart in vitro. Therefore, we applied the MMPIs at 1 and 100 μM final concentration in the enzyme's development buffer (Table 3).
After the chemical optimization of the novel MMP inhibitor lead candidates, we determined their IC50 values by using gelatin zymography. During zymographic analysis, we used full-length, active MMP-2 enzymes isolated from healthy young adult rat hearts. Subsequently, the cardio-cytoprotective effects of the selected candidates having the lowest IC50 values to MMP-2 were tested in cultured neonatal cardiac myocytes subjected to simulated I/R injury. Cardiac myocyte cell culture assay allowed a relatively high throughput biological efficacy testing (Gorbe et al., [2010]) of the selected lead candidates in several dose ranges at different levels of inhibition of MMP-2 activity.

[6] = system: MMP-2; details: Figure 1, known MMP-2 inhibitors; cited from earlier work
[7] = target: T2, MMP-1; details: Figure 1, known MMP-2 inhibitors; cited from earlier work
[8] = Table 1, acids vs hydroxamic acids, catalytic fragment

MMP-9, sequence (P14780 94-707, species assumed): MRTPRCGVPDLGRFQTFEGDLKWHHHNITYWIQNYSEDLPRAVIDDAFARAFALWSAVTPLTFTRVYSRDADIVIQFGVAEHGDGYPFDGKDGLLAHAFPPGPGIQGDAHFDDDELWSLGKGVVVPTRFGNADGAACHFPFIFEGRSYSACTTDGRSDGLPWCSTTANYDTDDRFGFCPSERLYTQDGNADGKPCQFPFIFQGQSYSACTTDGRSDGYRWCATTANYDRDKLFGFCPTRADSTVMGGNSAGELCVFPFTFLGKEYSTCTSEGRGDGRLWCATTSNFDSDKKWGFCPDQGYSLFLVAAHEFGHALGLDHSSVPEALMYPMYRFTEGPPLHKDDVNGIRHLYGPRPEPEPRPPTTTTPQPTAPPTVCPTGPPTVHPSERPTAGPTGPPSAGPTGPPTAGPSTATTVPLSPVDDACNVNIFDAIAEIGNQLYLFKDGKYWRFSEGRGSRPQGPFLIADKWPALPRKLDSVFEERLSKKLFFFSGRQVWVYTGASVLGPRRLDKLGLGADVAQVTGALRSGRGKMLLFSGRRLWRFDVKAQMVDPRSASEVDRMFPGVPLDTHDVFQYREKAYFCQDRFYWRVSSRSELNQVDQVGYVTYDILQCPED
T1 sequence (P08253 with tags, fused parts or gaps DEL222-396 limits assumed): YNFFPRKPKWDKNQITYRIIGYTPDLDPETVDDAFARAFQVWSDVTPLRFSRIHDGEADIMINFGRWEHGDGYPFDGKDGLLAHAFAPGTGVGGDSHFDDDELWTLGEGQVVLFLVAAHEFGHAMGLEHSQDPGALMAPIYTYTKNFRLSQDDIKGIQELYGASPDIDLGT

SMILES	IC50 [1, 8]	IC50 ([1]; Table 2)	IC50 [2]	IC50 [3]	IC50 [4]	inhibition at 100 µM [5]	EC50 [5]	IC50 [6]	IC50 [7]
O=C(NO)c1csc(CN(Cc2cccc(Cl)c2)Cc2cccc(C(F)(F)F)c2)n1 [AMRI-102H]	11 µM	–	–	–	–	–	–	–	–
O=C(O)C(c1ccccc1)N(Cc1ccc(OCc2ccccc2)cc1)Cc1cccc(F)c1 (stereo not drawn) [MMPI-1140]	–	20 µM	12 µM	39 µM	2.6 µM	81.1 ± 3.88%	–	–	–
O=C(O)c1csc(CN(Cc2ccc(F)cc2)Cc2ccc(OCc3ccncc3)cc2)n1 [MMPI-1248]	–	8 µM	47 µM	8.8 µM	1.24 µM	100%	9 µM	–	–
O=C(O)c1csc(CN(Cc2ccc(F)cc2)Cc2ccc(-c3ccccc3)cc2)n1 [MMPI-1254]	–	30 µM	17 µM	20 µM	3 µM	100%	32 µM	–	–
O=C(O)c1csc(CN(CCC(c2ccccc2)c2ccccc2)Cc2ccccc2F)n1 [AMRI-103A]	7.6 µM	–	–	–	–	–	–	–	–
O=C(O)c1csc(CN(Cc2ccc(F)cc2)Cc2ccc(OCc3cccnc3)cc2)n1 [MMPI-1260]	–	5.7 µM	51 µM	37 µM	2.5 µM	100%	17.7 µM	–	–
O=C(O)c1csc(CN(Cc2ccc(OCc3ccccc3)cc2)Cc2cccc(F)c2)n1 [MMPI-1133]	–	25 µM	6.8 µM	–	4.7 µM	11.1 ± 1.58%	–	–	–
O=C(O)c1csc(CN(Cc2ccc(F)cc2)Cc2ccc(OCc3ccccc3)cc2)n1 [MMPI-1157]	3.4 µM	–	–	15 µM	1.6 µM	100%	18 µM	–	–
O=C(NO)c1csc(CN(CCC(c2ccccc2)c2ccccc2)Cc2ccccc2F)n1 [AMRI-103H]	17.6 µM	–	–	–	–	–	–	–	–
O=C(O)c1csc(CN(Cc2ccncc2)Cc2ccc(OCc3ccccc3)cc2)n1 [MMPI-1252]	–	54 µM	115 µM	≥ 500 µM	1.5 µM	100%	–	–	–
O=C(O)c1csc(CN(Cc2cccc(Cl)c2)Cc2cccc(C(F)(F)F)c2)n1 [AMRI-102A]	6.2 µM	–	–	–	–	–	–	–	–
O=C(O)c1c[nH]c(CN(Cc2ccc(F)cc2)Cc2ccc(OC(c3ccccc3)c3ccccc3)cc2)n1 [MMPI-1245]	–	35 µM	16 µM	8 µM	0.28 µM	100%	–	–	–
O=C(NO)c1csc(CN(Cc2ccc(F)cc2)Cc2ccc(OCc3ccccc3)cc2)n1 [AMRI-101H]	12 µM	–	–	–	–	–	–	–	–
O=C(O)c1csc(CN(Cc2ccc(OCc3ccccc3)cc2)Cc2cccnc2)n1 [MMPI-1253]	–	90 µM	240 µM	≥ 500 µM	8 µM	100%	–	–	–
Cc1ccc(CN(Cc2ccc(OCc3ccccc3)cc2)Cc2nc(C(=O)O)c[nH]2)cc1 [MMPI-1247]	–	15 µM	33 µM	100 µM	3.3 µM	100%	16 µM	–	–
CC1(C)OCC(C(CS(=O)(=O)c2ccc(Oc3ccc(OC(F)(F)F)cc3)cc2)N(O)C=O)O1 (stereo not drawn) [ABT-518]	–	–	–	–	–	–	–	0.0008 µM	8.9 µM
O=C(O)c1csc(CN(Cc2ccc(OCc3ccccc3)cc2)C(c2ccccc2)c2ccccc2)n1 [MMPI-1155]	–	25 µM	26 µM	10 µM	1.76 µM	47 ± 19.1%	–	–	–
